A short description of data set [1]: Optimal laser wavelength that liver-ICG can absorb with maximum intensity. Particulars: FIG. 2. The data set is classed as physicochemical. From the text:
(§1) We set up a study of PDT with ICG using patient derived orthotopic xenograft (PDOX) mouse model (FIG. 7). In the PDOX model, the mouse liver has human liver cancer. […] We then found the optimal laser wavelength that liver-ICG can absorb with maximum intensity which was 809 nm (FIG. 2). We set up the laser to treat HCC with PDT with the setting numbers in Table 1.

The next data set deals with HCC (human liver cancer). Nature of the data set: PDT with ICG (809 nm laser) in PDOX mouse model. The data set is classed as in vivo.
Source text: as §1

The nature of data set [2]: ICG distribution after administration in patient derived orthotopic xenograft (PDOX) mouse model. The data set is classed as in vivo.
Source text: as §1

Structures are written as SMILES. Several values for one entry are separate records, joined by “and”; a condition that tells them apart may be missing. Equal entries are not always repeated. Entries after “also recorded” stand apart in the source; their conditions may differ.

For the molecule `CC1(C)C(/C=C/C=C/C=C/C=C2\N(CCCCS(=O)(=O)O)c3ccc4ccccc4c3C2(C)C)=[N+](CCCCS(=O)(=O)[O-])c2ccc3ccccc3c21` [ICG, indocyanine green], the “optimal laser wavelength that liver-ICG can absorb with maximum intensity” value in data set [1] was 805-815 nm and 809 nm. The “finding on MRI after treatment” value in the data set on HCC (human liver cancer) (2 weeks after treatment, PDOX mouse) is on record as “tumor necrosis”. Moreover, in the data set with HCC (human liver cancer) (specimen after PDT with ICG), the “pathologic evaluation of HCC” value is “apoptosis of HCC”. Moreover, the ICG localisation entry is reported as “present in the whole body” in data set [2] (at 0 hr after ICG administration), “present in the liver” in data set [2] (at 6 hrs after ICG administration) and “confined to a liver tumor; also recorded: confined in only HCC inside the liver” in data set [2] (at 24 hrs after ICG administration).

These data come from patent US20250065147A1, “SYSTEMS AND METHODS FOR PHOTODYNAMIC THERAPY” (Virginia Commonwealth University, priority 2023, published 2025).
